In assay [1] the test system is liver ischemia/reperfusion injury. The assay is described as follows: Liver ischemia/reperfusion injury, serum GPT. In kind it is in vivo, Mice. As to conditions: administered 6 hours prior to I/R injury; serum GPT 24 hours later; vs. a control compound and ATL146e; FIG. 17. How it is done: Mice were anesthetized by intraperitoneal injection of ketamine 100 mg/kg and xylazine 10 mg/kg. Glycopyrrolate (Robinul-V™) 0.05 mg/kg was delivered subcutaneously before the operation. The ambient temperature was controlled in the range of 24° C. to 26° C. Mice were placed on a 37° C. heat pad with their core temperature monitored by a TH-8 Thermalert™ Monitoring Thermometer (Physitemp) and maintained at 36-37° C. by a TCAT-1A Temperature Control and Alarm Unit (Physitemp) during the entire procedure. After midline laparotomy, a microaneurysm clip was applied to the hepatic triad above the bifurcation to clamp the flow of the hepatic artery, portal vein, and bile duct. […]
Serum GPT (ALT) levels were measured using a Transaminase kit (505, Sigma). Briefly, 20 μL serum sample was mixed with 100 (L pre-heated Alanine-α-KG substrate and incubated in a 37° C. water bath for 30 minutes. Then we added 100 (L Sigma Color Reagent to the reaction and left it at room temperature for 20 minutes. We stopped the reaction with 1.0 ml 0.4N sodium hydroxide solution. Absorbance of each sample at 505 nm was measured and converted into SF unit/ml.
The test compounds were administered 6 hours prior to I/R injury. Tissue protection is measured by amount of Serum GPT present in the in a serum sample 24 hours later, with smaller GPT concentrations indicating better liver function.

In the next assay the target is T1, A3 AR (Homo sapiens, UniProt P0DMS8).
T1 sequence (P0DMS8 1-318): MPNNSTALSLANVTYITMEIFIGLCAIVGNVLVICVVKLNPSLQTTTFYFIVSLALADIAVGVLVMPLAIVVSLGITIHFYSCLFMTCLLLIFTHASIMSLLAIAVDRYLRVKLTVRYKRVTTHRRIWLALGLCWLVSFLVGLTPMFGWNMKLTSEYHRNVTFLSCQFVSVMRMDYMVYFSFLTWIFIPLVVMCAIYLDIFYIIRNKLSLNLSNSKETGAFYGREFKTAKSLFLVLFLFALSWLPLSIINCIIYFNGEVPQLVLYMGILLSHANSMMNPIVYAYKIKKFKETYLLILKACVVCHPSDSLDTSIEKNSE
The assay is described as follows: Radioligand competition binding (125I-ABA) to human A3 AR in HEK 293 cell membranes. As to conditions: for Ki: A3 ± SEM, Ki from competition binding, 125I-ABA, HEK 293 cell membranes; for A3/A2A: selectivity ratio A3 over A2A.

The test system of a further assay is human neutrophils. The assay is described as follows: Human neutrophil oxidative activity, luminol-enhanced chemiluminescence. In kind it is cell-based. As to conditions: for EC50: Homo sapiens, Neutrophil, read-out: PMN oxid (-log EC50) (converted); for PMN oxid + roli (-log EC50): human neutrophil experiment w/Rolipram. In a few lines: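 Purified human neutrophils (5–10×10^5/ml) pre-incubated 30 min at 37 °C with the A2A agonist, ± rolipram and ± TNF-α (1 U/ml), then stimulated with fMLP (1 μM final). Peak luminol-enhanced chemiluminescence expressed as percent of no-agonist control. EC50 from three donors.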

Another assay has as its target T2, human A1 AR (Homo sapiens, UniProt P30542).
T2 sequence (P30542 1-326): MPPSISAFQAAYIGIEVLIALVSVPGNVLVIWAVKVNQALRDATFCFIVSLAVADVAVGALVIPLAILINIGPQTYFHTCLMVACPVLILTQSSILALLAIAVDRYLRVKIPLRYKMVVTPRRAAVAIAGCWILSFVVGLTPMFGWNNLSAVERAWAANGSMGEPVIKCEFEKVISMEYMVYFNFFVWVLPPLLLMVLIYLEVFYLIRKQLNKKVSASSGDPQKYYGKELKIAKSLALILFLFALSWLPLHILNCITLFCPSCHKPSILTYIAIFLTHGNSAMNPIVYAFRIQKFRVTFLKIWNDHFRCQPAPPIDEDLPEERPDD
As to the kind of experiment: Radioligand competition binding (125I-ABA) to human A1 AR in CHO K1 cell membranes. The conditions noted are these: for Ki: A1 ± SEM, Ki from competition binding, 125I-ABA, CHO K1 cell membranes; for A1/A2A: selectivity ratio A1 over A2A.

Assay [2] concerns the target recombinant human A2A receptors (Homo sapiens, UniProt P29274). The assay is described as follows: Radioligand competition binding to recombinant human A2A receptors in Sf9 cell membranes. The conditions noted are these: A2A ± SEM, Ki from competition binding, Sf9 cell membranes.
Description: (§1) Sf9 cells were cultured in Grace's medium supplemented with 10% fetal bovine serum, 2.5 μg/ml amphotericin B and 50 μg/ml gentamycin in an atmosphere of 50% N2/50% O2. […] Infected cells were harvested 3 days post-infection and washed twice in insect PBS (PBS pH 6.3). Cells were then resuspended in lysis buffer (20 mM HEPES pH 7.5, 150 mM NaCl, 3 mM MgCl2, 1 mM β-mercaptoethanol (BME), 5 μg/mL leupeptin, 5 μg/mL pepstatin A, 1 μg/mL aprotinin, and 0.1 mM PMSF) and snap frozen for storage at −80° C. Cells were thawed on ice, brought to 30 mL total volume in lysis buffer, and burst by N2 cavitation (600 psi for 20 minutes). A low-speed centrifugation was performed to remove any unlysed cells (1000×g for 10 minutes), followed by a high-speed centrifugation (17,000×g for 30 minutes). The pellet from the final centrifugation was homogenized in buffer containing 20 mM HEPES pH 8, 100 mM NaCl, 1% glycerol, 2 μg/mL leupeptin, 2 μg/mL pepstatin A, 2 μg/mL Aprotinin, 0.1 mM PMSF, and 10 μM GDP using a small glass homogenizer followed by passage through a 26 gauge needle. Membranes were aliquoted, snap frozen in liquid N2, and stored at −80° C.
(§2) Binding experiments were performed in triplicate with 5 μg (A2A) or 25 μg (A1 and A3) membrane protein in a total volume of 0.1 mL HE buffer (20 mM HEPES and 1 mM EDTA) with 1 U/mL adenosine deaminase and 5 mM MgCl2 with or without 50 μM GTPγS. Membranes were incubated with radioligands at room temperature for three hours (for agonists) or two hours (for antagonists) in Millipore Multiscreene® 96-well GF/C filter plates and assays were terminated by rapid filtration on a cell harvester (Brandel, Gaithersburg, Md.) followed by 4×150 μl washes over 30 seconds with ice cold 10 mM Tris-HCl, pH 7.4, 10 mM MgCl2.
Setting [3] is: human neutrophil experiment w/o Rolipram.

Sequence of recombinant human A2A receptors (P29274 whole entry): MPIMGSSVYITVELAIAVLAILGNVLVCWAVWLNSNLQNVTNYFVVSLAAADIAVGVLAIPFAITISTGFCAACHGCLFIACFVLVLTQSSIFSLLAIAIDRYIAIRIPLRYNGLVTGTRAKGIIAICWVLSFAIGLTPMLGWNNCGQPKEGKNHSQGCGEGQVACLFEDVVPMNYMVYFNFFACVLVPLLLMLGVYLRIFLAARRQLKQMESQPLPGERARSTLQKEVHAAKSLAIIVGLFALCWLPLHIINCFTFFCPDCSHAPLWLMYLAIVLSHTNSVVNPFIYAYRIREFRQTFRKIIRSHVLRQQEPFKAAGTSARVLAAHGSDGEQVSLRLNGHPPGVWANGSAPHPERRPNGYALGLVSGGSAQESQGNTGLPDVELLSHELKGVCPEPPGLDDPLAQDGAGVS
Description for human A1 AR: as §1, §2

`CCNC(=O)[C@H]1O[C@@H](n2cnc3c(N)nc(C#C[C@]4(O)CCC[C@@H](C)C4)nc32)C(O)C1O` (stereo in doubt) [JR-3223, 5-[6-Amino-2-(1-hydroxy-3-methylcyclohexylethynyl)purin-9-yl]-3,4-dihydroxytetrahydrofuran-2-carboxylic acid ethylamide]: in assay [1], the “duration of action for liver tissue protection (Serum GPT)” value is on record as “longer duration of action”. Moreover, on A3 AR, the inhibitory constant (Ki) amounted to 0.7 ± 0.02 nM and the A3/A2A came out at 0.8. Besides, the EC50 in the assay with human neutrophils (setting [3]) is 0.339 nM. Moreover, the “PMN oxid + roli (-log EC50)” value in the assay on human neutrophils was 10.15. Besides, on human A1 AR, the inhibitory constant (Ki) came out at 4.8 ± 0.3 nM and the A1/A2A was 5.2. Moreover, the inhibition constant (Ki) in assay [2] amounted to 0.92 ± 0.2 nM.
Regarding `CCNC(=O)[C@H]1O[C@@H](n2cnc3c(N)nc(C#CC(O)(C4CCCCC4)C4CCCCC4)nc32)C(O)C1O` (stereo in doubt) [JR-3139, 5-[6-Amino-2-(3,3-dicyclohexyl-3-hydroxy-prop-1-ynyl)-purin-9-yl]-3,4-dihydroxytetrahydrofuran-2-carboxylic acid ethylamide], on A3 AR, the affinity corresponds to a Ki of 83.7 ± 30 nM and the A3/A2A is 0.5. For the same compound, the half-maximal effective concentration (EC50) in the assay with human neutrophils (setting [3]) was 4070 nM. In addition, the “PMN oxid + roli (-log EC50)” value in the assay with human neutrophils came out at 6.75. At human A1 AR, the inhibition constant (Ki) worked out at 801 ± 99 nM and the A1/A2A stood at 4.8. The Ki in assay [2] came out at 166 ± 42 nM.
`CCNC(=O)[C@H]1O[C@@H](n2cnc3c(N)nc(C#CCC4CCC(C(=O)OCCN)CC4)nc32)C(O)C1O` (stereo in doubt) [JR-3033, 4-{3-[6-Amino-9-(5-ethylcarbamoyl-3,4-dihydroxy-tetrahydrofuran-2-yl)-9H-purin-2-yl]-prop-2-ynyl}-cyclohexanecarboxylic acid 2-amino-ethyl ester]: on A3 AR, the inhibition constant Ki worked out at 26 ± 14 nM and the A3/A2A is on record as 16.7. Also, the EC50 in the assay with human neutrophils (setting [3]) is 49 nM. Also, the “PMN oxid + roli (-log EC50)” value in the assay on human neutrophils came to 8.67. For the same compound, on human A1 AR, the inhibition constant (Ki) was 15.1 ± 3.9 nM and the A1/A2A was determined as 9.7. Besides, the inhibition constant (Ki) in assay [2] amounted to 1.6 ± 0.02 nM.
Turning to `CCNC(=O)[C@H]1O[C@@H](n2cnc3c(N)nc(C#CC4(O)CCCCC4C)nc32)C(O)C1O` (single isomer, unassigned) [JR-3177B, 5-[6-Amino-2-(1-hydroxy-2-methyl-cyclohexylethynyl)-purin-9-yl]-3,4-dihydroxytetrahydrofuran-2-carboxylic acid ethylamide], on A3 AR, the affinity, expressed as Ki, was 7.5 ± 4.5 nM and the A3/A2A was found to be 11.2. Further, the “PMN oxid + roli (-log EC50)” value in the assay on human neutrophils is reported as 9.45. Moreover, in the assay on human neutrophils (setting [3]), the “PMN oxid (-log EC50)” value was determined as 8.5. On human A1 AR, the affinity corresponds to a Ki of 15.5 ± 0.7 nM and the A1/A2A was found to be 23.1. Moreover, in assay [2], the inhibitory constant (Ki) was determined as 0.7 ± 0.07 nM.
With `CCNC(=O)[C@H]1O[C@@H](n2cnc3c(N)nc(C#CCC4CCC(C(=O)OCCNC(=O)OC(C)(C)C)CC4)nc32)C(O)C1O` (stereo in doubt) [JR-3021, 4-{3-[6-Amino-9-(5-ethylcarbamoyl-3,4-dihydroxy-tetrahydrofuran-2-yl)-9H-purin-2-yl]-prop-2-ynyl}-cyclohexanecarboxylic acid 2-tert-butoxycarbonylamino-ethyl ester], the Ki came to 41 ± 1 nM on A3 AR, 107 ± 10 nM at human A1 AR and 1.6 ± 0.5 nM in assay [2]. Moreover, at A3 AR, the A3/A2A is on record as 25.6. Besides, the EC50 with human neutrophils (setting [3]) was 26.3 nM. Besides, the “PMN oxid + roli (-log EC50)” value in the assay on human neutrophils is 8.58. Besides, the A1/A2A on human A1 AR stood at 66.9.

The values above are taken from patent publication US7737127B2, “2-propynyl adenosine analogs having A2A agonist activity and compositions thereof” (University of Virginia Patent Foundation, priority 2001, dated 2010).
